How the values were obtained:
Assay in all cases: relative viability (nuclei count vs DMSO), 5 days (fraction); higher = more cells survive
Kobe2602 = compound: C1=CC(=CC=C1NC(=S)NNC2=C(C=C(C=C2[N+](=O)[O-])C(F)(F)F)[N+](=O)[O-])F [Kobe2602]
Summary of the method: (§1)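 Lung cancer cell lines in 1536-well plates were kept overnight at 37 °C, then pinned with five library-drug doses (not always all listed) spaced by √10 on vehicle-anchored plates. After 5 days without medium change, cells were fixed, permeabilised and Hoechst-stained in one step, imaged at 4×, and nuclei were counted with MetaXpress. Viability is treated-well nuclei divided by vehicle-well nuclei, taken as the median over plates. Plates passed only with control CV below 25% and at least one doubling.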

Zosuquidar = compound: O[C@@H](COc1cccc2ncccc12)CN1CCN([C@@H]2c3ccccc3[C@@H]3[C@H](c4ccccc42)C3(F)F)CC1 [Zosuquidar]
Summary of the method: as §1

Cabozantinib = compound: COc1cc2nccc(Oc3ccc(NC(=O)C4(C(=O)Nc5ccc(F)cc5)CC4)cc3)c2cc1OC [Cabozantinib]
Summary of the method: as §1

Kobe2602 + Alpelisib = compound: C1=CC(=CC=C1NC(=S)NNC2=C(C=C(C=C2[N+](=O)[O-])C(F)(F)F)[N+](=O)[O-])F [Kobe2602] + Cc1nc(NC(=O)N2CCC[C@H]2C(N)=O)sc1-c1ccnc(C(C)(C)C(F)(F)F)c1 [Alpelisib] (partner 2 µM)
Summary of the method: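 Cells from lung cancer lines were seeded into 1536-well plates and, one day later, dosed by pin tool. Treatments were either a single drug or a fixed dose of an anchor drug with five library-drug doses (not always all listed) in √10 steps. After 5 days, nuclei were stained in a one-step fixation (final 0.05% Triton X-100, 1% formaldehyde, 1 ug/ml Hoechst) and counted on 4× images, and relative viability is the treated-to-vehicle nuclei ratio, as the median of duplicate plates.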

| Cell Line | relative viability (Kobe2602; 0.2 µM) | relative viability (Kobe2602; 0.6325 µM) | relative viability (Kobe2602; 2 µM) | relative viability (Kobe2602; 6.325 µM) | relative viability (Kobe2602; 20 µM) | relative viability (Zosuquidar; 0.01 µM) | relative viability (Zosuquidar; 0.03162 µM) | relative viability (Zosuquidar; 0.1 µM) | relative viability (Zosuquidar; 0.3162 µM) | relative viability (Zosuquidar; 1 µM) | relative viability (Cabozantinib; 0.02 µM) | relative viability (Cabozantinib; 0.06325 µM) | relative viability (Cabozantinib; 0.6325 µM) | relative viability (Cabozantinib; 2 µM) | relative viability (Kobe2602 + Alpelisib; first compound 0.2 µM) | relative viability (Kobe2602 + Alpelisib; first compound 0.6325 µM) | relative viability (Kobe2602 + Alpelisib; first compound 2 µM) | relative viability (Kobe2602 + Alpelisib; first compound 6.325 µM) | relative viability (Kobe2602 + Alpelisib; first compound 20 µM) | relative viability (Cabozantinib; 0.2 µM) |
| --- | --- | --- | --- | --- | --- | --- | --- | --- | --- | --- | --- | --- | --- | --- | --- | --- | --- | --- | --- | --- |
| PC-14 | 0.993 | 1.05 | 0.989 | 1.04 | 0.952 | 0.988 | 0.981 | 0.953 | 1.11 | 0.954 | 1.01 | 1.14 | 0.996 | 0.99 | 0.822 | 0.948 | 0.863 | 0.962 | 0.989 | – |
| NCI-H1755 | 0.962 | 0.971 | 0.993 | 0.985 | 0.994 | 0.995 | 1.01 | 0.94 | 1.05 | 1.01 | 0.994 | 1.04 | 0.923 | 0.857 | 0.906 | 0.874 | 0.919 | 0.866 | 0.956 | 0.977 |
| NCI-H1651 | 0.982 | 1.01 | 0.981 | 0.967 | 1.01 | 0.985 | 1.02 | 0.911 | 1.02 | 0.983 | 0.95 | 1.07 | 0.981 | 0.968 | 0.964 | 0.932 | 0.792 | 0.809 | 0.965 | 0.92 |
| NCI-H661 | 1 | 0.952 | 0.983 | 0.991 | 1.02 | 0.945 | 0.976 | 0.91 | 1.03 | 0.982 | 0.986 | 1.03 | 1.02 | 1.06 | 0.565 | 0.644 | 0.738 | 0.661 | 0.955 | 1.01 |
| NCI-H358 | 0.993 | 1.03 | 0.862 | 0.828 | 0.97 | 0.959 | 0.914 | 0.871 | 0.878 | 0.937 | 0.936 | 1.02 | 0.981 | 0.813 | 0.799 | 0.836 | 0.677 | 0.884 | 0.827 | 0.833 |
| NCI-H1395 | 0.978 | 1.22 | 0.893 | 1.06 | 0.976 | 0.914 | 0.869 | 0.717 | 1.18 | 0.891 | 0.797 | 1.23 | 0.938 | 0.815 | 1.05 | 1.29 | 1.09 | 1.14 | 1.03 | 1.01 |
| HCC-15 | 1 | 1.03 | 0.976 | 0.998 | 0.991 | 0.959 | 0.937 | 0.956 | 1.04 | 0.972 | 0.972 | 1.11 | 0.994 | 1.02 | 0.797 | 0.938 | 0.875 | 0.849 | 0.885 | 1.01 |
| PC-3 [JPC-3] | 1.07 | 1.09 | 1.01 | 1.01 | 0.954 | 1.06 | 0.992 | 0.883 | 0.972 | 1.01 | 1.03 | 1.21 | 1.03 | 1.09 | 1.05 | 1.04 | 0.971 | 1.03 | 1.02 | – |
